The record followed here is patent US8501936B2 (priority 2009, dated 2013).

Each structure is given as a SMILES string.

Test [1] has as its target human JAK2 (Homo sapiens (Human), UniProt O60674). To be noted: read-out: JAK2 IC50.
Test [2] deals with human FAK (Homo sapiens (Human), UniProt Q05397). To be noted: read-out: FAK IC50.
human FAK, sequence (Q05397 whole entry): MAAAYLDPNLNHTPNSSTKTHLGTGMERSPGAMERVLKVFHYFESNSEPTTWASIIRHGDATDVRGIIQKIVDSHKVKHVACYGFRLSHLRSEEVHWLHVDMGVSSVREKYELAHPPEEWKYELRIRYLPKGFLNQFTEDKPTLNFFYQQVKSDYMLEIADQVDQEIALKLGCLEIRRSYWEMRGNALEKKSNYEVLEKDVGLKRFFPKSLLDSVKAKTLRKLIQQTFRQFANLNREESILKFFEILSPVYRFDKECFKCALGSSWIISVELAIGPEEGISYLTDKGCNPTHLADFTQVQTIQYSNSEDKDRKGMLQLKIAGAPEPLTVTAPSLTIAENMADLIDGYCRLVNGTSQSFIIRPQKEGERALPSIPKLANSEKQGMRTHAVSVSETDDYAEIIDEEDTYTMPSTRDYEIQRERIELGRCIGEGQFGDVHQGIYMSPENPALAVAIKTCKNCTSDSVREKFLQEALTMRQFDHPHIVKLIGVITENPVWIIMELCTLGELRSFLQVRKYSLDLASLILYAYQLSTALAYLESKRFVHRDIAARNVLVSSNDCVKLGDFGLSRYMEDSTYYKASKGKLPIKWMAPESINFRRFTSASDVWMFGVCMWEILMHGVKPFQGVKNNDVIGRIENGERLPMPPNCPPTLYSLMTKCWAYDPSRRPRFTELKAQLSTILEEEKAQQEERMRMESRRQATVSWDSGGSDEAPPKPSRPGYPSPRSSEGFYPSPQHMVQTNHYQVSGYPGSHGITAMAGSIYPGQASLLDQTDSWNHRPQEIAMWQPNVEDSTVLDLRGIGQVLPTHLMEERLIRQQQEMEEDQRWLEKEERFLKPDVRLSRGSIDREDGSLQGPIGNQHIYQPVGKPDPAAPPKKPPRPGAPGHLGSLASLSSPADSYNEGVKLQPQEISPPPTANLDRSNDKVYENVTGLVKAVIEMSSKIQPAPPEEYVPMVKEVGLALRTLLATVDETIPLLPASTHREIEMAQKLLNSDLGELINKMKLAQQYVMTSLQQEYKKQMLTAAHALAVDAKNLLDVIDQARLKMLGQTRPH

human JAK2, sequence (O60674 815-1132): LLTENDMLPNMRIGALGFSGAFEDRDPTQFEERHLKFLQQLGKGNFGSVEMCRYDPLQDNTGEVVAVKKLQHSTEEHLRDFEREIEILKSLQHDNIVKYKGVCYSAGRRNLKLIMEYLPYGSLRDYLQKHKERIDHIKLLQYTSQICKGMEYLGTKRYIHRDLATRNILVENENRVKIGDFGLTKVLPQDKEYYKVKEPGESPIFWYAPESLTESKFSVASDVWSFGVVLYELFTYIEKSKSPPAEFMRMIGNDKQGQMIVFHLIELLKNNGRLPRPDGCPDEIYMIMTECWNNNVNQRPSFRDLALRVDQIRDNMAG

A word on the IC50: it is the concentration that inhibits the measured activity by half. As for `CN1CCN(c2cccc(Nc3nc4c(-c5ccc(P(C)(C)=O)cc5)cccn4n3)c2)C(=O)C1` [Example 207, 1-(3-{8-[4-(Dimethyl-phosphinoyl)-phenyl]-[1,2,4]triazolo[1,5-a]pyridin-2-ylamino}-phenyl)-4-methyl-piperazin-2-one], the IC50 amounted to 10.5 nM in test [1] and 10000 nM in test [2].
Taken in the same sequence, the figures for `CCN1CCN(c2cccc(Nc3nc4c(-c5ccc(P(C)(C)=O)cc5)cccn4n3)c2)C(=O)C1` [Example 208, 1-(3-{8-[4-(Dimethyl-phosphinoyl)-phenyl]-[1,2,4]triazolo[1,5-a]pyridin-2-ylamino}-phenyl)-4-ethyl-piperazin-2-one] were 13.2 nM and 10000 nM.
With `CCn1cc(Nc2nc3c(-c4ccc(S(C)(=O)=O)cc4)cccn3n2)cn1` [Example 209, (1-Ethyl-1H-pyrazol-4-yl)-[8-(4-methanesulfonyl-phenyl)-[1,2,4]triazolo[1,5-a]pyridin-2-yl]-amine], the IC50 in test [1] stood at 1.88 nM; in test [2] it was 10000 nM.
Regarding `CCn1cc(Nc2nc3c(Oc4ccc(S(C)(=O)=O)cc4)cccn3n2)cn1` [Example 211, (1-Ethyl-1H-pyrazol-4-yl)-[8-(4-methanesulfonyl-phenoxy)-[1,2,4]triazolo[1,5-a]pyridin-2-yl]-amine], the values for the IC50 in test [1] and in test [2] were 1160 nM and 10000 nM, respectively.
Taken in the same sequence, the figures for `CC(C)(C)OC(=O)N1CCC(n2cc(Nc3nc4c(-c5ccc(S(C)(=O)=O)cc5)cccn4n3)cn2)CC1` [Example 212, 4-{4-[8-(4-Methanesulfonyl-phenyl)-[1,2,4]triazolo[1,5-a]pyridin-2-ylamino]-pyrazol-1-yl}-piperidin-1-carboxylic acid tert-butyl ester] were 0.5 nM and 3000 nM.
Taken in the same sequence, the figures for `CS(=O)(=O)c1ccc(-c2cccn3nc(Nc4cnn(C5CCNCC5)c4)nc23)cc1` [Example 213, [8-(4-Methanesulfonyl-phenyl)-[1,2,4]triazolo[1,5-a]pyridin-2-yl]-(1-piperidin-4-yl-1H-pyrazol-4-yl)-amine] were 0.71 nM and 3000 nM.
Taken in the same sequence, the figures for `FC(F)(F)c1ccc(-c2cccn3nc(Nc4cnn(CCN5CCCC5)c4)nc23)cc1` [Example 216, [1-(2-Pyrrolidin-1-yl-ethyl)-1H-pyrazol-4-yl]-[8-(4-trifluoromethyl-phenyl)-[1,2,4]triazolo[1,5-a]pyridin-2-yl]-amine] were 9.1 nM and 10000 nM.
Consider `CS(=O)(=O)c1ccc(Oc2cccn3nc(Nc4cnn(CCN5CCCC5)c4)nc23)cc1` [Example 217, [8-(4-Methanesulfonyl-phenoxy)-[1,2,4]triazolo[1,5-a]pyridin-2-yl]-(1-(2-pyrrolidin-1-yl-ethyl)-1H-pyrazol-4-yl]-amine], for which the half-maximal inhibitory concentration (IC50) in test [1] turned out to be 3000 nM; in test [2], 1220 nM.
For the compound `CS(=O)(=O)c1ccc(-c2cccn3nc(Nc4cnn(CCN5CCCC5)c4)nc23)cc1` [Example 219, [8-(4-Methanesulfonyl-phenyl)-[1,2,4]triazolo[1,5-a]pyridin-2-yl]-(1-(2-pyrrolidin-1-yl-ethyl)-1H-pyrazol-4-yl]-amine], the IC50 in test [1] worked out at 13.9 nM; in test [2] it was 10000 nM.
Taken in the same sequence, the figures for `COCc1ccccc1-c1cccc2nc(Nc3ccc4c(c3)CCN(C(=O)OC(C)(C)C)CC4)nn12` [Example 226, 7-[5-(2-Methoxymethyl-phenyl)-[1,2,4]triazolo[1,5-a]pyridin-2-ylamino]-1,2,4,5-tetrahydro-benzo[d]azepine-3-carboxylic acid tert-butyl ester] were 650 nM and 10000 nM.
Taken in the same sequence, the figures for `COCc1ccccc1-c1cccc2nc(Nc3ccc4c(c3)CCN(CC(=O)N(C)C)CC4)nn12` [Example 229, 2-{7-[5-(2-Methoxymethyl-phenyl)-[1,2,4]triazolo[1,5-a]pyridin-2-ylamino]-1,2,4,5-tetrahydro-benzo[d]azepin-3-yl}-N,N-dimethyl-acetamide] were 47.4 nM and 3000 nM.
Taken in the same sequence, the figures for `COCc1ccccc1-c1cccc2nc(Nc3ccc4c(c3)CCN(CCS(C)(=O)=O)CC4)nn12` [Example 230, [3-(2-Methanesulfonyl-ethyl)-2,3,4,5-tetrahydro-1H-benzo[d]azepin-7-yl]-[5-(2-methoxymethyl-phenyl)-[1,2,4]triazolo[1,5-a]pyridin-2-yl]-amine] were 27.6 nM and 2000 nM.
On to `COc1ccc(C(F)(F)F)cc1-c1cccc2nc(Nc3ccc4c(c3)CCNCC4)nn12` [Example 234, [5-(2-Methoxy-5-trifluoromethyl-phenyl)-[1,2,4]triazolo[1,5-a]pyridine-2-yl]-(2,3,4,5-tetrahydro-1H-benzo[d]azepin-7-yl)-amine], for which the concentration for half-maximal inhibition (IC50) came to 23.4 nM in test [1] and 547 nM in test [2].
Taken in the same sequence, the figures for `COc1ccc(C(F)(F)F)cc1-c1cccc2nc(Nc3ccc4c(c3)CCN(CCSC)CC4)nn12` [Example 235, [5-(2-Methoxy-5-trifluoromethyl-phenyl)-[1,2,4]triazolo[1,5-a]pyridin-2-yl]-(3-(2-methylsulfanyl-ethyl)-2,3,4,5-tetrahydro-1H-3-benzazepin-7-yl]-amine] were 26.7 nM and 135 nM.
Taken in the same sequence, the figures for `COc1ccc(C(F)(F)F)cc1-c1cccc2nc(Nc3ccc4c(c3)CCN(CC(=O)N(C)C)CC4)nn12` [Example 237] were 53.9 nM and 714 nM.
Taken in the same sequence, the figures for `CCOc1ccccc1-c1cccn2nc(Nc3ccc4c(c3)CCN(CCS(C)(=O)=O)CC4)nc12` [Example 245] were 70 nM and 10000 nM.
`CCOc1ccccc1-c1cccn2nc(Nc3ccc4c(c3)CCN(CC(=O)N(C)C)CC4)nc12` [Example 246]: the IC50 worked out at 212 nM in test [1] and 10000 nM in test [2].
Taken in the same sequence, the figures for `CS(=O)(=O)CCN1CCc2ccc(Nc3nc4c(-c5cccc6c5OC(F)(F)O6)cccn4n3)cc2CC1` [Example 247, [8-(2,2-difluoro-1,3-benzodioxol-4-yl)-[1,2,4]triazolo[1,5-a]pyridin-2-yl]-[3-(2-methanesulfonyl-ethyl)-2,3,4,5-tetrahydro-1H-3-benzazepin-7-yl)amine] were 24.8 nM and 2000 nM.
Turning to `CN(C)C(=O)CN1CCc2ccc(Nc3nc4c(-c5cccc6c5OC(F)(F)O6)cccn4n3)cc2CC1` [Example 248, 2-(7-[8-(2,2-difluoro-1,3-benzodioxol-4-yl)-[1,2,4]triazolo[1,5-a]pyridin-2-yl-amino]-1,2,4,5-tetrahydro-3-benzazepin-3-yl)-N—N-dimethyl-acetamide], the IC50 amounted to 30.4 nM in test [1] and 1700 nM in test [2].
Consider `COc1ccc(C(F)(F)F)cc1-c1cccn2nc(Nc3ccc(N4CCN(C)CC4)cc3)nc12` [Example 254, [8-(2-Methoxy-5-trifluoromethyl-phenyl)-[1,2,4]triazolo[1,5-a]pyridin-2-yl]-[4-(4-methyl-piperazine-1-yl)-phenyl]-amine], for which the IC50 was 31.3 nM in test [1] and 1080 nM in test [2].
Taken in the same sequence, the figures for `COc1ccc(C(F)(F)F)cc1-c1cccn2nc(Nc3cccc(N4CCN(C)CC4)c3)nc12` [Example 255, [8-(2-Methoxy-5-trifluoromethyl-phenyl)-[1,2,4]triazolo[1,5-a]pyridin-2-yl]-[3-(4-methyl-piperazine-1-yl)-phenyl]-amine] were 158 nM and 1220 nM.
